The subject of experiment [1] is Cytomegalovirus. Nature of the experiment: Inhibition of growth of human cytomegalovirus (HCMV) was determined by plaque reduction assay in human lung fibroblast cell line. The experiment is classed as functional, organism-based. The following applies: Human betaherpesvirus 5, Fibroblast. Background: In a plaque reduction assay, fewer plaques than in the control indicate reduced infectivity or spread.

Experiment [2] deals with Human alphaherpesvirus 3. Put plainly: Inhibition of growth of varicella zoster virus(VZV) by plaque reduction assay in vero cell line. Format: functional, organism-based. The following applies: Human alphaherpesvirus 3, Vero.
The test system of experiment [3] is Human alphaherpesvirus 2. Nature of the experiment: Inhibition of growth of herpes simplex virus (HSV-2) by plaque reduction assay in vero cell line. The experiment is classed as functional, organism-based. Conditions: Human alphaherpesvirus 2, Vero.
The subject of experiment [4] is Human alphaherpesvirus 1. Nature of the experiment: (§1) Inhibition of growth of herpes simplex virus (HSV-1) by plaque reduction assay in vero cell line. Format: functional, organism-based. Conditions: Human alphaherpesvirus 1, Vero.
Experiment [5] relates to Cytomegalovirus. Nature of the experiment: Inhibition of growth of human cytomegalovirus (HCMV) was determined by plaque reduction assay in Detroit cells. The following applies: Human betaherpesvirus 5, Detroit. The experiment is classed as functional, organism-based.
Experiment [6] has as its system Human alphaherpesvirus 1. Described as §1. Format: functional, organism-based, herpes simplex vir. The following applies: Human alphaherpesvirus 1, Vero.
The test system of experiment [7] is Cytomegalovirus. Nature of the experiment: Inhibition of growth of human cytomegalovirus (HCMV) by plaque reduction assay in human lung fibroblast cell line. The experiment is classed as functional, organism-based. Conditions: Human betaherpesvirus 5, Fibroblast.
In experiment [8] the test system is Cytomegalovirus. Put plainly: Inhibition of growth of human cytomegalovirus (HCMV) was determined by plaque reduction assay in human foreskin fibroblast cell line. The following applies: Human betaherpesvirus 5, Fibroblast. Format: functional, organism-based.

Usually IC50 stands for the point on the concentration scale where inhibition reaches its midpoint. `Nc1nc(=O)ccn1COC(CO)CO` had an IC50 in experiment [1] of over 100 µM.

Consider `CNc1ccn(COC(CO)CO)c(=O)n1`, for which, in experiment [1], the IC50 was over 100 µM.

`COC(=O)CC(CC(=O)OC)OC[n+]1ccc(N)nc1`: the IC50 in experiment [1] is over 100 µM.

On to `Nc1nc(=O)n(COC(CO)CO)cc1I`, for which the IC50 in experiment [1] and in experiment [2] was over 100 µM throughout.

As for `Nc1ccn(COC(CO)CO)c(=S)n1`, the half-maximal inhibitory concentration (IC50) in experiment [1] is over 100 µM.

Regarding `Nc1nc2c(ncn2COC(CO)CO)c(=O)[nH]1` [GANCICLOVIR], the IC50 in experiment [1] was determined as 3.4 µM; in experiment [3] it was 0.1 µM; in experiment [4], 0.1 µM; in experiment [2] it was 2.8 µM.

For the compound `Cc1cn(COC(CO)CO)c(=O)[nH]c1=O`, the IC50 in experiment [1] is over 250 µM; in experiment [2] it was over 100 µM.

In the case of `Cc1cn(COC(CO)CO)c(=O)nc1N`, the IC50 in experiment [1] and in experiment [2] was over 100 µM in each case.

On to `O=c1[nH]c(=O)n(COC(CO)CO)cc1Br`, for which the IC50 in experiment [1] and in experiment [2] was over 100 µM throughout.

Turning to `Nc1cn(COC(CO)CO)c(=O)[nH]c1=O`, in experiment [2], the IC50 is over 100 µM.

As to `CN(C)c1ccn(COC(CO)CO)c(=O)n1`, the IC50 in experiment [1], in experiment [4] and in experiment [2] was over 100 µM each time.

As to `O=c1ccn(COC(CO)CO)c(=O)[nH]1`, the IC50 in experiment [1] was over 250 µM; in experiment [2] it was over 100 µM.

Regarding `O=c1[nH]c(=O)n(COC(CO)CO)cc1I` [IODACYCLUR], the IC50 in experiment [5], in experiment [6] and in experiment [2] was over 100 µM throughout.

As for `Nc1ccn(COC(CO)CO)c(=O)n1`, the IC50 in experiment [7] came to 11.2 µM; in experiment [3], 50 µM; in experiment [4], 140 µM; in experiment [2], 17.1 µM.

Take `Nc1nc(=O)n(COC(CO)CO)cc1F`: the IC50 in experiment [1] was 100 µM.

Turning to `Nc1ncn(COC(CO)CO)c(=O)n1`, the IC50 in experiment [8] is over 25 µM; in experiment [1], 100 µM; in experiment [3], over 100 µM.

The values above are taken from ChEMBL document CHEMBL1123942, “Effect of acyclic pyrimidines related to 9-[(1,3-dihydroxy-2-propoxy)methyl]guanine on herpesviruses” (J Med Chem, 1988).
